{"source": "patent US20070054916A1", "about": "“Aryl nitrogen-containing bicyclic compounds and methods of use” (Amgen Inc., priority 2004, published 2007)", "data": [{"system": "production of TNF by monocytes activated with bacterial lipopolysaccharide (LPS)", "assay": "Lipopolysaccharide-activated monocyte TNF production assay", "assay_type": "cell-based", "settings": "Homo sapiens, read-out: IC50 values in the monocyte assay (LPS induced TNF release)", "description": "Lipopolysaccharide-Activated Monocyte TNF Production Assay\nTest compounds were evaluated in vitro for the ability to inhibit the production of TNF by monocytes activated with bacterial lipopolysaccharide (LPS). Fresh residual source leukocytes (a byproduct of plateletpheresis) were obtained from a local blood bank, and peripheral blood mononuclear cells (PBMCs) were isolated by density gradient centrifugation on Ficol-Paque Plus (Pharmacia). PBMCs were suspended at 2×10^6/ml in DMEM supplemented to contain 2% FCS, 10 mM, 0.3 mg/ml […], 100 U/ml penicillin G and […] streptomycin sulfate (complete media). Cells were plated into Falcon flat bottom, 96 well culture plates (200 μl/well) and cultured overnight at 37° C. and 6% CO2. Non-adherent cells were removed by washing with 200 μl/well of fresh medium. Wells containing adherent cells (˜70% monocytes) were replenished with 100 μl of fresh medium.\nPreparation of Test Compound Stock Solutions\nTest compounds were dissolved in […]. Compound stock solutions were prepared to an initial concentration of […]. Stocks were diluted initially to 20-200 μM in complete media. Nine two-fold serial dilutions of each compound were then prepared in complete medium.\nTreatment of Cells with Test Compounds and Activation of TNF Production with Lipopolysaccharide\nOne hundred microliters of each test compound dilution were added to microtiter wells containing adherent monocytes and 100 μl complete medium. Monocytes were cultured with test compounds for 60 min at which time 25 μl of complete medium containing 30 ng/ml lipopolysaccharide from E. coli K532 were added to each well. Cells were cultured an additional 4 hrs. Culture supernatants were then removed and TNF presence in the supernatants was quantified using an ELISA.\nFlat bottom, 96 well Corning High Binding ELISA plates were coated overnight (4° C.) with 150 μL/well of 3 μg/ml murine anti-human TNF-α MAb (R&D Systems #MAB210). Wells were then blocked for 1 hr at room temperature with 200 μL/well of CaCl2-free ELISA buffer supplemented to contain 20 mg/ml BSA (standard ELISA buffer: […], 150 mM NaCl, 2 mM CaCl2, 0.15 mM thimerosal, pH 7.4). Plates were washed and replenished with 100 μl of test supernatants (diluted 1:3) or standards. Standards consisted of eleven 1.5-fold serial dilutions from a stock of 1 ng/ml recombinant human TNF (R&D Systems). Plates were incubated at room temperature for 1 hr on orbital shaker (300 rpm), washed and replenished with 100 μl/well of 0.5 ug/ml goat anti-human TNF-α (R&D systems #AB-210-NA) biotinylated at a 4:1 ratio. Plates were incubated for 40 min, washed and replenished with 100 μl/well of alkaline phosphatase-conjugated streptavidin (Jackson ImmunoResearch #016-050-084) at 0.02 ug/ml. Plates were incubated 30 min, washed and replenished with 200 μl/well of 1 mg/ml of p-nitrophenyl phosphate. After 30 min, plates were read at 405 nm on a Vmax plate reader.\nStandard curve data were fit to a second order polynomial and unknown TNF-α concentrations determined from their OD by solving this equation for concentration. TNF concentrations were then plotted vs. test compound concentration using a second order polynomial. This equation was then used to calculate the concentration of test compounds causing a 50% reduction in TNF production.", "units": {"IC50": "µM"}, "values": [{"smiles": "CCN(CC)CCOc1cccnc1NC(=O)c1ccc(C)c(-c2ccc3nc(N)ncc3c2)c1", "note": "[Example 363, 3-(2-amino-6-quinazolinyl)-N-(3-((2-(diethylamino)ethyl)oxy)-2-pyridinyl)-4-methylbenzamide]", "IC50": "≤ 25"}, {"smiles": "CSc1ccc(C(F)(F)F)cc1NC(=O)c1ccc(C)c(-c2ccc3nc(N)ncc3c2)c1", "note": "[Example 146, 3-(2-amino-6-quinazolinyl)-4-methyl-N-(2-(methylsulfanyl)-5-(trifluoromethyl)phenyl)benzamide]", "IC50": "≤ 25"}, {"smiles": "CCN(CC)CCOc1ccc(OC)c(NC(=O)c2ccc(C)c(-c3ccc4nc(N)ncc4c3)c2)c1", "note": "[Example 71, 3-(2-amino-6-quinazolinyl)-N-(5-((2-(diethylamino)ethyl)oxy)-2-(methyloxy)phenyl)-4-methylbenzamide]", "IC50": "≤ 25"}, {"smiles": "Cc1ccc(C(=O)Nc2ccc(F)cc2F)cc1-c1ccc2nc(N)ncc2c1", "note": "[Example 424, 3-(2-amino-6-quinazolinyl)-N-(2,4-difluorophenyl)-4-methylbenzamide]", "IC50": "≤ 25"}, {"smiles": "Cc1ccc(NC(=O)c2ccccc2)cc1-c1ccc2nc(NC(=O)c3ccccc3)ncc2c1", "note": "[Example 483, N-(6-(2-methyl-5-((phenylcarbonyl)amino)phenyl)-2-quinazolinyl)benzamide]", "IC50": "≤ 25"}, {"smiles": "Cc1ccc(F)c(NC(=O)c2ccc(C)c(-c3ccc4nc(N)ncc4c3)c2)c1", "note": "[Example 147, 3-(2-amino-6-quinazolinyl)-N-(2-fluoro-5-methylphenyl)-4-methylbenzamide]", "IC50": "≤ 25"}, {"smiles": "CCN(CC)CCOc1ccc(NC(=O)c2ccc(C)c(-c3ccc4nc(N)ncc4c3)c2)c(OC)c1", "note": "[Example 70, 3-(2-amino-6-quinazolinyl)-N-(4-((2-(diethylamino)ethyl)oxy)-2-(methyloxy)phenyl)-4-methylbenzamide]", "IC50": "≤ 25"}, {"smiles": "Cc1ccc(C(=O)Nc2cc(C(F)(F)F)ccc2N(C)CCCN(C)C)cc1-c1ccc2nc(N)ncc2c1", "note": "[Example 114, 3-(2-amino-6-quinazolinyl)-N-(2-((3-(dimethylamino)propyl)(methyl)amino)-5-(trifluoromethyl)phenyl)-4-methylbenzamide]", "IC50": "≤ 25"}, {"smiles": "Cc1ccc(C(=O)Nc2cc(C(F)(F)F)ccn2)cc1-c1ccc2nc(N)ncc2c1", "note": "[Example 345, 3-(2-amino-6-quinazolinyl)-4-methyl-N-(4-(trifluoromethyl)-2-pyridinyl)benzamide]", "IC50": "≤ 25"}, {"smiles": "CNc1ncc2cc(-c3cc(NC(=O)c4cc(OC)c(OC)c(OC)c4)ccc3C)cnc2n1", "note": "[Example 216, N-(4-methyl-3-(2-(methylamino)pyrido[2,3-d]pyrimidin-6-yl)phenyl)-3,4,5-tris(methyloxy)benzamide]", "IC50": "≤ 25"}, {"smiles": "Nc1ncc2cc(-c3cc(C(=O)Nc4cc(C(F)(F)F)ccc4N4CCCCC4)ccc3Cl)ccc2n1", "note": "[Example 156, 3-(2-amino-6-quinazolinyl)-4-chloro-N-(2-(1-piperidinyl)-5-(trifluoromethyl)phenyl)benzamide]", "IC50": "≤ 25"}, {"smiles": "Cc1ccc(C(=O)Nc2cccc3nonc23)cc1-c1ccc2nc(N)ncc2c1", "note": "[Example 303, 3-(2-amino-6-quinazolinyl)-N-(2,1,3-benzoxadiazol-4-yl)-4-methylbenzamide]", "IC50": "≤ 25"}, {"smiles": "CCN(CC)CCNC(=O)Nc1ccc(NC(=O)c2ccc(C)c(-c3ccc4nc(N)ncc4c3)c2)cc1C(F)(F)F", "note": "[Example 5, 3-(2-amino-6-quinazolinyl)-N-(4-((((2-(diethylamino)ethyl)amino)carbonyl)amino)-3-(trifluoromethyl)phenyl)-4-methylbenzamide]", "IC50": "≤ 25"}, {"smiles": "Cc1ccc(C(=O)Nc2cc(C(=O)N3CCN(C)CC3)cc(C(F)(F)F)c2)cc1-c1ccc2nc(N)ncc2c1", "note": "[Example 158, 3-(2-amino-6-quinazolinyl)-4-methyl-N-(3-((4-methyl-1-piperazinyl)carbonyl)-5-(trifluoromethyl)phenyl)benzamide]", "IC50": "≤ 25"}, {"smiles": "Cc1ccc(C(=O)Nc2ccc(C(F)(F)F)cc2)cc1-c1ccc2nc(N(C)C)ncc2c1", "note": "[Example 319, 3-(2-(dimethylamino)-6-quinazolinyl)-4-methyl-N-(4-(trifluoromethyl)phenyl)benzamide]", "IC50": "≤ 25"}]}]}
